According to patent US20060177853A1, “Antidepressant drug target” (The Scripps Research Institute, priority 2005, published 2006):
Several values for one entry are separate records, joined by “and”; a condition that tells them apart may be missing. Equal entries are not always repeated. Entries after “also recorded” stand apart in the source; their conditions may differ. Where two headings read alike, the source gives them in different places. Blank lines part the entries; values can stand above or below the compound they belong to. Square brackets hold non-standard residues; d marks the D form. Peptide text beside a SMILES is read from it. * marks the point of attachment. Fmoc = O=C(OCC1c2ccccc2-c2ccccc21)*; Cha = N[C@@H](CC1CCCCC1)C(=O)O; AMC = Cc1cc(=O)oc2cc(N*)ccc12

Legend:
[1] = tested on: galanin mRNA; experiment: Quantitative real time PCR of galanin mRNA in rat brain regions after treatment; format: in vivo
Method: (§1) Tissue dissections. Tissues used for RNA extraction or binding study were rapidly dissected after sacrifice and immediately frozen on dry ice. All dissections were performed by an experienced neuroanatomist with a rat brain slicer and for small structures, like LC and DRN, the punching method was used to assure reproducible dissection.
Quantitative real time PCR. Brain tissues obtained from 12 rats (DRN, LC, paraventricular nucleus of hypothalamus) or 6 rats (prefrontal cortex, amygadala, hippocampus) were pooled and total RNA was prepared with Trizol reagent (Invitrogen, Carlsbad, Calif.) following manufacturer's instructions. For galanin mRNA quantification in DRN and LC after FLX treatment, the experiment was repeated with 3 independent pools of 4 rats per treatment per brain region. Aliquots of total RNA (2 μg) and oligo(dT) primers were then reverse transcribed with ThermoScript RT (Invitrogen) at 51° C. for 60 minutes. Quantitative PCR was performed using a Roche LightCycler and LightCycler Fast Start DNA Master SYBR Green I mix (Roche Applied Science, Indianapolis, Ind.). […] Real time PCR assays included an initial 10 minutes, 94° C. step to activate Taq polymerase, followed by 35 cycles of denaturation 94° C., 10 seconds, annealing 58° C., 10 seconds, and extension 72° C., 25 seconds. The results were expressed in arbitrary units normalized by the expression levels of the reference gene, β-actin.
(§2) Drug treatments. Fluoxetine (FLX, Sigma, St. Louis, Mo.) was dissolved in saline and administered i.p. at a dose of 10 mg/kg daily for 14 days for biochemical studies. Separate groups of rats received daily i.p. injections of FLX or saline vehicle for 14 days for testing in the forced swim task. On day 14, rats were administered FLX or saline i.p. at 45 minutes prior to the forced swim test and M40 (Bachem, King of Prussia, Pa.) or ACSF i.c.v. at 15 minutes prior to the forced swim test (see methods below). Single i.c.v. microinjections of M40 (8 nmol/2 μl ACSF) or ACSF (2 μl) were performed with a 10 μl Hamilton syringe connected via Becton Dickinson polyethylene tubing (PE20) to a 1.5 cm injector (Plastics One) fabricated from 31 gauge hypodermic tubing. The animal was allowed to freely explore a small cage during the infusion of 2 μl over 1.5 minutes, with each 1 μl separated by ten seconds, and an additional sixty seconds before the injector was withdrawn from the guide cannula. The treatments consisted of equal numbers of rats receiving one of the following combinations of treatments: saline+ACSF, saline+M40, FLX+ACSF, or FLX+M40. […] One week after the forced swim test, rats were randomly assigned to treatment groups. Rats were treated with vehicle, galnon or desipramine. Forty five minutes after injection, rats were subjected to the open field test.

[2] = tested on: GalR2 sites; experiment: GalR2 binding sites in brain tissue after treatment, saturating [125I]galanin binding with galanin (2-11) as competitor; format: in vivo, rat; settings: FLX 10 mg/kg i.p. 14 days
Method: as §1
(§3) Membrane preparation and binding assay. DRN and LC were dissected from a total of 16 rats per group and samples from 4 animals were pooled. […] Incubations were at room temperature for 45 minutes and terminated by rapid filtration through glass fiber filters (Packard, Meriden, Conn.). After three washes with cold PBS (pH 7.4) containing 0.01 % (v/v) Triton X 100, the filter was counted with Cobra II auto Gamma counting systems (Parkard Bioscience, Downer Grove, Ill.).
(§4) Neurol. […] Anxiety 2000, 12, 170-7; Nolen, W. A., et al. Int. Clin. Psychopharmacol. […] Neurol. […] As GalR3 is not abundant in the regions tested, GalR1 sites were estimated by subtracting GalR2 sites from the sum of GalR1 and GalR2 receptor sites. […] Neurol.
(§5) Drug treatments. Fluoxetine (FLX, Sigma, St. Louis, Mo.) was dissolved in saline and administered i.p. at a dose of 10 mg/kg daily for 14 days for biochemical studies. Separate groups of rats received daily i.p. injections of FLX or saline vehicle for 14 days for testing in the forced swim task. […]

[3] = tested on: GalR1 sites; experiment: GalR1 binding sites in brain tissue after treatment, total galanin-binding sites minus GalR2 sites; format: in vivo; settings: rat DRN, FLX 10 mg/kg i.p. 14 days
Method: as §1, §3, §4, §5

[4] = tested on: time spent active in forced swim test; experiment: Forced swim test; format: in vivo, rat
Method: Rats underwent aseptic stereotaxic surgery under ketamine (100 mg/kg, i.p.) xylazine (10 mg/kg, i.p.) anesthesia. A guide cannula 1.4 cm in length, of 26 gauge stainless steel hypodermic tubing (Plastics One, St. Louis, Mo.) was implanted into the right lateral ventricle at coordinates 0.5 mm posterior, 1.0 mm lateral to bregma, and 3.5 mm ventral to the surface of the skull. A 31 gauge stylet was secured to the guide cannula following the surgery. After surgery, rats were given at least 8 days recovery before the start of behavioral testing.
Fluoxetine (FLX, Sigma, St. Louis, Mo.) was dissolved in saline and administered i.p. at a dose of 10 mg/kg daily for 14 days for biochemical studies. Separate groups of rats received daily i.p. injections of FLX or saline vehicle for 14 days for testing in the forced swim task. On day 14, rats were administered FLX or saline i.p. at 45 minutes prior to the forced swim test and M40 (Bachem, King of Prussia, Pa.) or ACSF i.c.v. at 15 minutes prior to the forced swim test (see methods below). Single i.c.v. microinjections of M40 (8 nmol/2 μl ACSF) or ACSF (2 μl) were performed with a 10 μl Hamilton syringe connected via Becton Dickinson polyethylene tubing (PE20) to a 1.5 cm injector (Plastics One) fabricated from 31 gauge hypodermic tubing. The animal was allowed to freely explore a small cage during the infusion of 2 μl over 1.5 minutes, with each 1 μl separated by ten seconds, and an additional sixty seconds before the injector was withdrawn from the guide cannula. The treatments consisted of equal numbers of rats receiving one of the following combinations of treatments: saline+ACSF, saline+M40, FLX+ACSF, or FLX+M40. Additional treatment groups (n=10 per group) were examined in a separate forced swim test 45 minutes after i.p. injection of one of the following: 50% DMSO (w/v), galnon (Vulpes, Estonia; dissolved in 50% DMSO), or desipramine (Sigma, St Louis, Mo., 15 mg/kg in 50% DMSO).
Forced swim test. Rats were placed singly in a cylindrical glass container (48 cm height, 21 cm diameter) with tap water (25° C.) to a depth of 27 cm and tested for 10 minutes. Water was changed and the cylinder thoroughly rinsed after each test. Tests were recorded on videotape and later scored by an experienced observer blind to the experimental conditions of the rats.
Data for forced swim test studies utilizing galnon and desipramine were subject to a one factor analysis of variance (ANOVA), with drug treatment as the between subjects factor. For the M40 FLX study, data were subject to a two factor between subjects design, with chronic drug treatment (FLX vs vehicle) and i.c.v. drug (M40 vs ACSF) as the main factors. Significant main effects were followed up with Fisher's LSD posthoc test to determine specific group differences.

[5] = tested on: locomotor activity (line crossing); experiment: Open field test; format: in vivo, rat; settings: for locomotor activity in the open field (words): desipramine 15 mg/kg
Method: as §2, with “treatments. […]” for “treatments. Fluoxetine (FLX, Sigma, St.”, “and […]” for “and M40”, “or […].” for “or ACSF i.c.v.”, “or FLX+[…].” for “or FLX+M40.”, “groups. […]” for “groups. Rats were treated with vehicle, galnon or desipramine.”, “test. Open field test. One week after the forced swim test, rats were randomly assigned to treatment groups. […] The apparatus consisted of a square arena (100 by 100 cm), with a 40 cm high opaque white wall. The floor was marked into 9 equal segments and fluorescent light provided diffuse overhead illumination. Locomotor activity over 5 minutes was recorded on videotape. Tapes were later scored blind to the experimental condition of the animals. Line crossing behavior (defined as at least three paws in a square) was tallied and compared between experimental conditions.” for “test.”

[6] = tested on: time spent active in forced swim test; settings: dose that suppresses status epilepticus; Bartfai et al. 2004; cited from earlier work
[7] = target: T1, rat GalR2 (Rattus norvegicus, UniProt O08726); experiment: Displacement of [125I]galanin binding from membranes of GalR2-expressing cells; settings: data not shown
T1 construct: expressed in transfected cells; host or cells: CHO cells, stably transfected
T1 sequence (O08726 1-372): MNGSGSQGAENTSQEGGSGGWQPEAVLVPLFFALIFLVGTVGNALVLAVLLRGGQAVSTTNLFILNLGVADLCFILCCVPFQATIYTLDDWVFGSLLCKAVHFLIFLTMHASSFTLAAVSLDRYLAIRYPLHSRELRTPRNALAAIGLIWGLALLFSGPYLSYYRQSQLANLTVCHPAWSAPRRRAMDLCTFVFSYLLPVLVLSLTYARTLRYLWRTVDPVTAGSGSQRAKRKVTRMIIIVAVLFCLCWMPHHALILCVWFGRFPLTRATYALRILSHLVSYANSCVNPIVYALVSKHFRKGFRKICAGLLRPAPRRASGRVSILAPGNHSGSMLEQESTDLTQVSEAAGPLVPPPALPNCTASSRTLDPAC
Source text: Cell lines. Stably transfected Chinese Hamster Ovary (CHO) cells expressing rat GalR2, and Bowes' melanoma cells that express human GalR1, were cultivated as described earlier (Wang, S., et al. Biochemistry 1998, 37, 6711-7; and Heuillet, E., et al. Eur. J. Pharmacol. 1994, 269, 139-47).
Membrane preparation and binding assay. DRN and LC were dissected from a total of 16 rats per group and samples from 4 animals were pooled. Rat brain synaptic membranes (Lu, X., et al. Neurosci. Lett. 2000, 286, 149-53) and cells were prepared as previously described (Heuillet, E., et al. Eur. J. Pharmacol. 1994, 269, 139 47). Equilibrium binding of ^125I, galanin (2200 Ci/mmol, PerkinElmer Life Science, Boston, Mass.) to hippocampal membrane preparations was performed in 150 μL binding buffer [50 mM Tris Cl (pH 7.4), 5 mM MgCl2, 0.05 % (w/v) bovine serum albumin, supplemented with protease inhibitors]. Incubations were at room temperature for 45 minutes and terminated by rapid filtration through glass fiber filters (Packard, Meriden, Conn.). After three washes with cold PBS (pH 7.4) containing 0.01 % (v/v) Triton X 100, the filter was counted with Cobra II auto Gamma counting systems (Parkard Bioscience, Downer Grove, Ill.).

[8] = tested on: withdrawal signs; settings: Zachariou et al. 2003, cited from earlier work
[9] = tested on: seizures; settings: Saar et al. 2002; cited from earlier work

Compound: CNCCC(Oc1ccc(C(F)(F)F)cc1)c1ccccc1 (stereo not shown) [FLX, fluoxetine]
- increase in galanin mRNA levels in DRN ([1]; rat DRN, FLX 10 mg/kg i.p. 14 days): 100%
- increase in galanin mRNA levels in DRN ([1]; rat DRN, FLX 10 mg/kg i.p. 14 days, pooled samples): 2 fold
- effect on galanin mRNA in DRN ([1]; rat DRN, FLX 14 days, three independent pools, P<0.05 vs Ctrl): increased galanin mRNA
- increase in galanin mRNA levels in LC ([1]; rat LC, FLX 10 mg/kg i.p. 14 days, pooled samples): 2.2 fold
- effect on galanin mRNA in LC ([1]; rat LC, FLX 14 days): increased galanin mRNA
- increase in number of GalR2 binding sites in DRN ([2]; rat DRN): 50% and 58%
- effect on GalR2 sites in LC ([2]; rat LC): not in LC
- effect on number of GalR1 binding sites in DRN [3]: without changes; also recorded: unaltered
- increase in time spent active in the forced swim test vs saline-pretreated rats ([4]; FLX 10 mg/kg i.p. 14 days, 10 minute test, P<0.05): ~46%
- time spent active in the forced swim test ([4]; FLX 10 mg/kg i.p. 14 days, FLX+ACSF vs Saline+ACSF, p<0.05): significant increase

- locomotor activity in the open field (words) ([5]; p<0.01): significantly reduced activity
- locomotor activity in the open field (words) ([5]; p<0.01, listed as Desipramine): significant reduction
Compound: CNCCCN1c2ccccc2CCc2ccccc21 [desipramine]
- activity in the forced swim test ([4]; desipramine 15 mg/kg i.p., positive control): significantly increased activity
- increase in activity in the forced swim test ([4]; desipramine 15 mg/kg i.p., positive control, p<0.001): 125%

Compound: COC(=O)[C@H](CCCCN)NC(=O)[C@]1(C)NC(=O)c2nc(oc2C)[C@](C)(C(=O)NC2c3ccccc3-c3ccccc32)NC(=O)c2nc(oc2C)[C@](C)(C(=O)NCC2CCCCC2)NC(=O)c2nc1oc2C [galmic]
- effect in the forced swim test [6]: antidepressant like effect

Compound: Cc1cc(=O)oc2cc(NC(=O)[C@H](CCCCN)NC(=O)[C@H](CC3CCCCC3)NC(=O)OCC3c4ccccc4-c4ccccc43)ccc12 [galnon] (Fmoc-[Cha]-Lys-{AMC})
- Ki [7]: 34.1 µM
- increase in activity in the forced swim test ([4]; galnon 20 mg/kg i.p., p<0.05): significant
- increase in activity in the forced swim test ([4]; galnon 40 mg/kg i.p., p<0.01): significant
- activity in the forced swim test ([4]; galnon 1-40 mg/kg i.p., 45 minutes after injection): significant increase; also recorded: dose dependent increase
- activity in the open field ([5]; galnon 20 mg/kg, p<0.01): significantly reduced
- activity in the open field ([5]; galnon 40 mg/kg, p<0.05): significantly reduced
- activity in the open field ([5]; higher doses of galnon, P<0.05 vs control): significantly reduced activity
- effect on withdrawal signs (words) [8]: attenuate several withdrawal signs
- effect on withdrawal signs (words) ([8]; listed as Galnon): inhibit signs of opiate withdrawal
- latency of phenyleneterazol induced seizures [9]: increase the latency
